Patent publication US9650389B2, “8-oxoprotoberberine derivative or pharmaceutically acceptable salt thereof, preparation method therefor and pharmaceutical composition for preventing or treating diseases associated with activity of NFAT5, containing same as active ingredient” (Korea Research Institute of Chemical Technology, priority 2013, dated 2017)

Key:
[1] = molecular target: T1, COX1 (Ovis aries, UniProt P05979); test: COX inhibition, COX assay kit (Table 4); assay type: biochemical
T1 construct: purchased Cayman Co. 760111
T1 sequence (P05979 25-600): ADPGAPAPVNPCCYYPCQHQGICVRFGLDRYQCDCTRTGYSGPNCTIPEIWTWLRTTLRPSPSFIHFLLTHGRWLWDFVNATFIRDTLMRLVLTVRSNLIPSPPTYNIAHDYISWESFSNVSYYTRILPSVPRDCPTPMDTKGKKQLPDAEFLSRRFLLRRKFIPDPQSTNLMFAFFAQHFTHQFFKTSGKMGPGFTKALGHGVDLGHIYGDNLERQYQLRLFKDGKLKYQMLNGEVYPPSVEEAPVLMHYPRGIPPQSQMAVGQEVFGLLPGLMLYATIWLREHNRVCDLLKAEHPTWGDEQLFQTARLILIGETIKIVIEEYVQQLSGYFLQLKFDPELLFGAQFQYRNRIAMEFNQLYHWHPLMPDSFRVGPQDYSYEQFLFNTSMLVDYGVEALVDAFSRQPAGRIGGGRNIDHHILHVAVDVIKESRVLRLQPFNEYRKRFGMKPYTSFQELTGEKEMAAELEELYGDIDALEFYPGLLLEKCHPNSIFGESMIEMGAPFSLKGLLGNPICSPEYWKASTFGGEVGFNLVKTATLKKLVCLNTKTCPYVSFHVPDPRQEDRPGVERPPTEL
Experimental: (§1) 10 μl of substrate and 10 μl of arachidonic acid were added thereto, followed by reaction for 10 minutes in the darkness. Then, OD590 was measured.

[2] = Metabolic stability in rat liver microsomes; assay type: in vitro ADME; details: rat liver microsome fractions, 30 minutes
Experimental: (§2) Particularly, each compound was added to rat and human liver microsome fractions, followed by culture for 30 minutes. Each compound was administered via intravenous injection (iv) and oral-administration (po) to rat at the concentration of 5 mg/kg, followed by making pharmacokinetic profiles.

[3] = system: NFATc; test: NFAT (NFATc) transcriptional activity, THP1-XBlue-MD2-CD14 cells, SEAP; assay type: cell-based; details: LPS 1 μg/ml, 24 hours, FIG. 2B
Experimental: To evaluate the transcriptional activity of NFAT, THP1-XBlue-MD2-CD14 cells were cultured in 10% FBS-RPMI (supplemented with 200 μg/ml of Zeocin and 250 μg/ml of G418). First, the cells were distributed in a 96-well plate at the density of 2×10^4 cells/well, followed by culture. 1 μg/ml of LPS and the compound of the invention were added thereto, followed by culture for 24 hours. 20 μl of the supernatant was added with 180 μl of secreted embryonic alkaline phosphatase (SEAP) detection medium, followed by culture for 2 hours. Then, OD655 was measured.

[4] = Metabolic stability in human liver microsomes; assay type: in vitro ADME; details: human liver microsome fractions, 30 minutes
Experimental: as §2

[5] = system: iNOS; test: Inhibition of LPS-induced iNOS induction in Raw264.7 cells (Griess reagent); assay type: cell-based; details: Mus musculus, Raw264.7, LPS 100 ng/ml, 24 hours, read-out: Inhibition rate of iNOS induction (%)
Experimental: To investigate whether or not the derivative of the present invention could inhibit iNOS inducement, Raw264.7 cells (mouse macrophages) were distributed in a 384-well plate at the density of 3×10^4 cells/well. The cells were treated with LPS at the concentration of 100 ng/ml, followed by culture at 37° C. for 24 hours. The concentration of […] increased in the medium was measured by using Griess reagent. The inhibition rate was calculated by mathematical formula based on the detected signals. The results are shown in Table 2. % inhibition=(mean value of sample−mean value of negative control)/(mean value of positive control −mean value of negative control)×100 [Mathematical Formula 1]

[6] = Cytotoxicity test (WST-8), CHO-K1; assay type: cell-based; details: Chinese hamster, CHO-K1 ovary cells; CHO-K1, 24 hours
Experimental: To investigate the cytotoxicity of the derivative of the present invention, 5 kinds of cell lines (VERO: African green monkey kidney cell line, HFL-1: human embryonic lung cell line, L929: NCTC clone 929, mouse fibroblast cell line, NIH 3T3: mouse embryonic fibroblast cell line, and CHO-K1: Chinese hamster ovary cell line) were distributed in a 96-well plate at the density of 1×10^4 cells/well, which were treated with the compound of the present invention for 24 hours. The water-soluble tetrazolium salt WST-8 was added thereto. The orange colored formazan dye degraded by dehydrogenase in the live cells was read, followed by nonlinear regression to determine 50% growth inhibition concentration.

[7] = system: inflammatory cytokines (TNF-α, IL-6); test: Inflammatory cytokines in LPS-stimulated spleen cells of collagen-induced arthritis mice (ELISA); assay type: in vivo; details: 15 and 60 mg/kg; arthritis mouse spleen cells, LPS 12 hours; FIG. 8
Experimental: Particularly, the mice having arthritis induced by collagen in Example 10 were used herein. Cells were extracted from the mouse spleen, which were cultured in a 12-well plate and stabilized. Cells were stimulated with LPS for 12 hours and the expressions of inflammatory cytokines (TNF-α, IL-6) were measured by ELISA.

[8] = molecular target: T2, COX2 (Ovis aries, UniProt P79208); test: COX inhibition, COX assay kit (Table 5); assay type: biochemical
T2 construct: purchased Cayman Co. 760111
T2 sequence (P79208 17-603): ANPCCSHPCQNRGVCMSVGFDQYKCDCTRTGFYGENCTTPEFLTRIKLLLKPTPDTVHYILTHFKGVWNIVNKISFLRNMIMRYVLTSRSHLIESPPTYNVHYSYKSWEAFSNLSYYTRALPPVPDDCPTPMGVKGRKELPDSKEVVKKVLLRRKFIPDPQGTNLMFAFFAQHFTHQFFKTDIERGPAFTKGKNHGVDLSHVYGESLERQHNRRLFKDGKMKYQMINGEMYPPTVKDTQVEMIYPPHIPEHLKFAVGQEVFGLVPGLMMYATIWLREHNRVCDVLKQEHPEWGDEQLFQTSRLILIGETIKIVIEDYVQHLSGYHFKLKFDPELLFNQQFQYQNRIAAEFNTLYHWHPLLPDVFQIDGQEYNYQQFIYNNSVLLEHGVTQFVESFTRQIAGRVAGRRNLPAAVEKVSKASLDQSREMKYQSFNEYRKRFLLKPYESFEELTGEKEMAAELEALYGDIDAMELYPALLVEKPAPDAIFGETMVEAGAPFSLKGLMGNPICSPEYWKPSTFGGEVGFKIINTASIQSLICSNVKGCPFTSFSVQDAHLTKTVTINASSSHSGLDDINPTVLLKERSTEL
Experimental: as §1

[9] = Conc. 20 μM, two values per substance
[10] = Conc. 20 μM, two values per substance, read-out: inhibition rate
[11] = Conc. 100 μM, two values per substance
[12] = Conc. 100 μM, two values per substance, read-out: inhibition rate

COc1ccc2c(Cc3ccccc3F)c3n(c(=O)c2c1OC)CCc1cc2c(cc1-3)OCO2 [Example 1, 13-(2-fluorobenzyl)-9,10-dimethoxy-5H-[1,3]dioxolo[4,5-g]isoquinolino[3,2-a]isoquinoline-8(6H)-one]
inhibitory effect on COX1 (in words) [1]: weak inhibitory effect | inhibition rate [1, 9]: 7.4 | inhibition at 20 µM [1, 10]: 11.4% | inhibition rate [1, 11]: 23.4 | inhibition at 100 µM [1, 12]: 28.4% | IC50 ([1]; Table 4): > 100 µM | remaining compound, Rat (%) [2]: 35 ± 3% | inhibition of NFAT promoter / transcriptional activity (in words) [3]: slightly | remaining compound, Human (%) [4]: 68.2 ± 6.1% | inhibition at 1 µM ([5]; 1 μM): 91% | inhibition at 10 µM ([5]; 10 μM): 134% | GI50 at 24 h [6]: 12.1 µM | expression of IL-6 [7]: reduced | expression of TNF-α [7]: reduced | inhibitory effect on COX2 (in words) [8]: weak inhibitory effect | inhibition rate [8, 9]: 15.5 | inhibition at 20 µM [8, 10]: 12.1% | inhibition rate [8, 11]: 25.7 | inhibition at 100 µM [8, 12]: 36.7% | IC50 ([8]; Table 5): > 100 µM
